Measurements as given in patent publication US10421765B2, “Tetrahydropyrido[4,3-d]pyrimidine inhibitors of ATR kinase” (Board of Regents, The University of Texas System, priority 2017, dated 2019).
Read-outs that look alike come from different tables or passages of the source.

How the values were obtained:
[1] = target: ATR/ATRIP complex (Homo sapiens (Human), UniProt Q13535); experiment: ATR/ATRIP enzymatic assay (Caliper-based); format: biochemical; settings: FAM-labeled RAD17 peptide, ATP
Method in brief: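 FLAG-TEV-ATR/His6-ATRIP co-expressed in HEK293 and anti-FLAG purified. Compound preincubated 30 min at 28 °C with enzyme (2x solution 4 nM), then FAM-RAD17 peptide (2x solution 10 uM, 2 μM ATP) added for 6 h at 28 °C; HEPES pH 8, 10 mM MnCl2. Caliper conversion read-out, IC50 from four-parameter fit.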

[2] = system: ATR-driven phosphorylation of Chk1 kinase at Serine 345 in HT-29 colorectal adenocarcinoma cells; experiment: pCHK1 cellular assay (CHK1 p-Ser345 AlphaScreen SureFire); format: cell-based; settings: Homo sapiens, HT-29, HT-29 cells, 4-nitroquinoline N-oxide 12 uM; read-out: Cell IC50 (pCHK1 IC50 values)
Method in brief: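 HT-29 cells seeded overnight, treated with 1:3 serially diluted compound for 90 minutes at 37° C., then 12 uM (final) 4-nitroquinoline N-oxide for 120 minutes. Lysates read for Chk1 p-Ser345 by AlphaScreen SureFire; IC50 from four-parameter logistic fit, normalized to DMSO (max) and 5 uM ATR inhibitor (min).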

[3] = read-out: ATR/ATRIP Enzyme IC50

Chain of ATR/ATRIP complex (Q13535 whole entry): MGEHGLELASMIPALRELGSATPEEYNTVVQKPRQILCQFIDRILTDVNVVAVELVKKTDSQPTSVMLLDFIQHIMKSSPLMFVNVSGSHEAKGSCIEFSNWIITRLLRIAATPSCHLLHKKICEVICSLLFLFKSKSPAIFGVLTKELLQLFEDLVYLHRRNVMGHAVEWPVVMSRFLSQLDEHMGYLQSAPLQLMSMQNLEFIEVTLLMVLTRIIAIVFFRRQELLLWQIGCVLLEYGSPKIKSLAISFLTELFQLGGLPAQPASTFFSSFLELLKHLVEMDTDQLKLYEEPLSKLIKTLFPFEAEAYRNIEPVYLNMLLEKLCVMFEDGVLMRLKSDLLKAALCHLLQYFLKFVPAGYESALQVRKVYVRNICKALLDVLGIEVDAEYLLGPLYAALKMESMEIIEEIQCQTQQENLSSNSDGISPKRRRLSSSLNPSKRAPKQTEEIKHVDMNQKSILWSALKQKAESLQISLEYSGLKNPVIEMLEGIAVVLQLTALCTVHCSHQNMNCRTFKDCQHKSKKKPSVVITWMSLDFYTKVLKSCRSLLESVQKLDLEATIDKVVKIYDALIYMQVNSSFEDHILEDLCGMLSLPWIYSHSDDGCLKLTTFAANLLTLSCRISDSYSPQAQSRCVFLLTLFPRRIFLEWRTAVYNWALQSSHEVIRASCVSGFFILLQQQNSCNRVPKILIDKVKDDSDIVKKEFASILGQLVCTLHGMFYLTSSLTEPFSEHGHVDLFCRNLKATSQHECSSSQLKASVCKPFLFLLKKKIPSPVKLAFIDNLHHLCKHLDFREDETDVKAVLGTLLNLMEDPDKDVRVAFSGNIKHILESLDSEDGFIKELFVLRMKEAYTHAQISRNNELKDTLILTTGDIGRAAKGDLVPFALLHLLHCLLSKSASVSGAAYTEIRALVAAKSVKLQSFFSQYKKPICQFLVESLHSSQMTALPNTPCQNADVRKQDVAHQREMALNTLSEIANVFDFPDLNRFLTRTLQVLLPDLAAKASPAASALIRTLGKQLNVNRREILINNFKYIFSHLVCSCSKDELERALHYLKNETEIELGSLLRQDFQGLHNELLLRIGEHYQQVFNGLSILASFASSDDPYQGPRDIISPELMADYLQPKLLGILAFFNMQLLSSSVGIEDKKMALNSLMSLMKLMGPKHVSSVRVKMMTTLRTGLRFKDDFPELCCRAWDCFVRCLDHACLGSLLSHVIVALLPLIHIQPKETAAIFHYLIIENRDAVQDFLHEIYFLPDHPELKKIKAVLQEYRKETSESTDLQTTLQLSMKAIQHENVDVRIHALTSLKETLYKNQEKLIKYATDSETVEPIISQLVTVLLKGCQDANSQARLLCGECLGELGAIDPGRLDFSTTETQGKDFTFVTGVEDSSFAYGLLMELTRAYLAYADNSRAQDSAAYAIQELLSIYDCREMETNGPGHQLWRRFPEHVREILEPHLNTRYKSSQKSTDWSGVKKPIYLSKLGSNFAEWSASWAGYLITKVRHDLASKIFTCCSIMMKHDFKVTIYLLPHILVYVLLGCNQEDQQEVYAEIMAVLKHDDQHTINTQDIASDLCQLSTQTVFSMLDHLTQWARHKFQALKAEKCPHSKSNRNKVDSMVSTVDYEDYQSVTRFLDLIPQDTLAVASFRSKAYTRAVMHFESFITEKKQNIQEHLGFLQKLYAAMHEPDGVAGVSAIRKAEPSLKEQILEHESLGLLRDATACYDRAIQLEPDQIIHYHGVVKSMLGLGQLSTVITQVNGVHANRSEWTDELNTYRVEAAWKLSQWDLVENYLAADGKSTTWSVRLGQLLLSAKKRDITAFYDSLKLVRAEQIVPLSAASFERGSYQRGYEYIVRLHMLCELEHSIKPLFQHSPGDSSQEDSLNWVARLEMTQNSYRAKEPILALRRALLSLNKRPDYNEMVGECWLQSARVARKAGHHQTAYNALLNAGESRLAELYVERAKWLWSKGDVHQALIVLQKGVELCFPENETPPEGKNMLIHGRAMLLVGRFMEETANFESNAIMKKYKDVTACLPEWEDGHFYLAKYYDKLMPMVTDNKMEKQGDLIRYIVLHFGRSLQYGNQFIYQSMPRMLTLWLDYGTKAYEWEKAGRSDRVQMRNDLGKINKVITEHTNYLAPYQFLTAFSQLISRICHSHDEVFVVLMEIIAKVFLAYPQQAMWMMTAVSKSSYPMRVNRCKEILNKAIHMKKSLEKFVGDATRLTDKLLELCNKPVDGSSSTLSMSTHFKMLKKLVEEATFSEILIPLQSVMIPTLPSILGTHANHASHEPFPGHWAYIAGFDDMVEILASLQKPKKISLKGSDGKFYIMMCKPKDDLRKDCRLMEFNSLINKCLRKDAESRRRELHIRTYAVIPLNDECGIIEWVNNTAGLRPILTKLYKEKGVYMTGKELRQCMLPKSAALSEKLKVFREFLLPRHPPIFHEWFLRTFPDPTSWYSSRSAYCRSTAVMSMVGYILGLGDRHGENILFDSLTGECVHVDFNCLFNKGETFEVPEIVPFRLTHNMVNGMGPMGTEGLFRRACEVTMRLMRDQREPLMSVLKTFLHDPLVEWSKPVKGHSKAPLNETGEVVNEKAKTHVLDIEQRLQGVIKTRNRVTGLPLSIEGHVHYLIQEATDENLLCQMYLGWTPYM
Chain of ATR/ATRIP complex (Q8WXE1 whole entry partner): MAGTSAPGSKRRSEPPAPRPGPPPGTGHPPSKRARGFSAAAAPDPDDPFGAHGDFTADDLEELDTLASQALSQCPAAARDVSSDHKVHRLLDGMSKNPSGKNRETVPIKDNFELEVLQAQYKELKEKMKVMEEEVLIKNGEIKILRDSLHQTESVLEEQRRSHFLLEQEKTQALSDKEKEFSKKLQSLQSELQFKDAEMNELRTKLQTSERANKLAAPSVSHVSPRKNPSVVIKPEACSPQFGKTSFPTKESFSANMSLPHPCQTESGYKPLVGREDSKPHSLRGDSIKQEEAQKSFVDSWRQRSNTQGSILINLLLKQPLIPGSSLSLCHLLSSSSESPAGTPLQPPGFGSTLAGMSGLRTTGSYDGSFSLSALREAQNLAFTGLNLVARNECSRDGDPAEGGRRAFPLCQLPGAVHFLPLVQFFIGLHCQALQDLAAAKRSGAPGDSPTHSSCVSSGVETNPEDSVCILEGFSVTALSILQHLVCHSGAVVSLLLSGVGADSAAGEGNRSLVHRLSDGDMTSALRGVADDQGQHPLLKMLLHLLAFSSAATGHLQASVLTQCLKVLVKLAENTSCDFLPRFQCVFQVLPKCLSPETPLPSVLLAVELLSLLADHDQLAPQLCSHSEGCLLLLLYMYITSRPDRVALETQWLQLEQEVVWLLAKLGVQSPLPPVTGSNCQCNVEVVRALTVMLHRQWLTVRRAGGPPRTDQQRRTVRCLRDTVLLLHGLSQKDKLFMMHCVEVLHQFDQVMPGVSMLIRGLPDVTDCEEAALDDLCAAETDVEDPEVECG

Row | IC50 [1, 3] [nM] | IC50 [2] [nM] | IC50 ([1]; estimated range, read-out: ATR/ATRIP Enzyme IC50 (estimated class)) [nM] | SMILES
1 | 3570 | 140 |  | C[C@@H]1Cc2ncnc(C3CCCN(S(C)(=O)=O)C3)c2CN1c1ccnc2[nH]ccc12 (stereo partly drawn) [Example 16, 1-methanesulfonyl-3-[(7R)-7-methyl-6-{1H-pyrrolo[2,3-b]pyridin-4-yl}-5H,6H,7H,8H-pyrido[4,3-d]pyrimidin-4-yl]piperidine]
2 | 114 | 29 |  | C[C@@H]1Cc2ncnc(N3C[C@H]4CC[C@@H](C3)C4NS(C)(=O)=O)c2CN1c1cc(Cl)nc2[nH]ccc12 (stereo partly drawn) [Example 13, N-((1R,5S)-3-((R)-6-(6-Chloro-1H-pyrrolo[2,3-b]pyridin-4-yl)-7-methyl-5,6,7,8-tetrahydropyrido[4,3-d]pyrimidin-4-yl)-3-azabicyclo[3.2.]octan-8-yl)methanesulfonamide]
3 | 246 | 34 |  | C[C@@H]1Cc2ncnc(N3CCC(O)(C4CC4)CC3)c2CN1c1cc(Cl)nc2[nH]ccc12 [Example 75, (R)-1-(6-(6-chloro-1H-pyrrolo[2,3-b]pyridin-4-yl)-7-methyl-5,6,7,8-tetrahydropyrido[4,3-d]pyrimidin-4-yl)-4-cyclopropylpiperidin-4-ol]
4 | 93 | 13 |  | C[C@@H]1Cc2ncnc(C3CCN(S(C)(=O)=O)CC3)c2CN1c1cc(OC2CC2)nc2[nH]ccc12 [Example 97, (R)-6-(6-cyclopropoxy-1H-pyrrolo[2,3-b]pyridin-4-yl)-7-methyl-4-(1-(methylsulfonyl)piperidin-4-yl)-5,6,7,8-tetrahydro-pyrido[4,3-d]pyrimidine]
5 | 584 | 25 |  | C[C@@H]1Cc2ncnc(N3CCC(C)(O)CC3)c2CN1c1cc(Cl)nc2[nH]ccc12 [Example 66, (R)-1-(6-(6-chloro-1H-pyrrolo[2,3-b]pyridin-4-yl)-7-methyl-5,6,7,8-tetrahydropyrido[4,3-d]-pyrimidin-4-yl)-4-methyl-piperidin-4-ol]
6 | 518 | 28 |  | C[C@@H]1Cc2ncnc(N3CCC(O)CC3)c2CN1c1cc(Cl)nc2[nH]ccc12 [Example 12, (R)-1-(6-(6-Chloro-1H-pyrrolo[2,3-b]pyridin-4-yl)-7-methyl-5,6,7,8-tetrahydropyrido[4,3-d]pyrimidin-4-yl)piperidin-4-ol]
7 | 237 | 20 |  | C[C@@H]1Cc2ncnc(N3CC[C@@H](S(C)(=O)=O)C3)c2CN1c1cc(Cl)nc2[nH]ccc12 [Example 87, (R)-6-(6-chloro-1H-pyrrolo[2,3-b]pyridin-4-yl)-7-methyl-4-((R)-3-(methylsulfonyl)-pyrrolidin-1-yl)-5,6,7,8-tetrahydropyrido[4,3-d]-pyrimidine]
8 | 936 | 362 |  | C[C@@H]1Cc2ncnc(C3CCN(S(C)(=O)=O)C3)c2CN1c1ccnc2[nH]ccc12 (stereo partly drawn) [Example 17, 1-methanesulfonyl-3-[(7R)-7-methyl-6-{1H-pyrrolo[2,3-b]pyridin-4-yl}-5H,6H,7H,8H-pyrido[4,3-d]pyrimdin-4-yl]pyrrolidine]
9 | 899 | 24 |  | C[C@@H]1Cc2ncnc(C3CCC(NS(C)(=O)=O)CC3)c2CN1c1cc(Cl)nc2[nH]ccc12 (stereo partly drawn) [Example 40, (R)-N-(4-(6-(6-chloro-1H-pyrrolo[2,3-b]pyridin-4-yl)-7-methyl-5,6,7,8-tetrahydropyrido[4,3-d]pyrimidin-4-yl)cyclohexyl)methane-sulfonamide]
10 | 223 | 21 |  | C[C@@H]1Cc2ncnc(N3CC(S(C)(=O)=O)C3)c2CN1c1cc(Cl)nc2[nH]ccc12 [Example 32, 1-[(7R)-6-{6-chloro-1H-pyrrolo[2,3-b]pyridin-4-yl}-7-methyl-5H,6H,7H,8H-pyrido[4,3-d]pyrimidin-4-yl]-3-methanesulfonylazetidine]
11 | 472 | 36 |  | C[C@@H]1Cc2ncnc(N3CCC(S(C)(=O)=O)C3)c2CN1c1cc(Cl)nc2[nH]ccc12 (stereo partly drawn) [Example 41, (7R)-6-(6-chloro-1H-pyrrolo[2,3-b]pyridin-4-yl)-7-methyl-4-(3-(methylsulfonyl)pyrrolidin-1-yl)-5,6,7,8-tetrahydropyrido[4,3-d]pyrimidine]
12 | 329 | 51 |  | C[C@@H]1Cc2ncnc(N3CC[C@H](S(C)(=O)=O)C3)c2CN1c1cc(Cl)nc2[nH]ccc12 [Example 86, (R)-6-(6-chloro-1H-pyrrolo[2,3-b]pyridin-4-yl)-7-methyl-4-((S)-3-(methylsulfonyl)-pyrrolidin-1-yl)-5,6,7,8-tetrahydropyrido[4,3-d]-pyrimidine]
13 | 270 | 54 |  | C[C@@H]1Cc2ncnc(C3CCN(S(C)(=O)=O)CC3)c2CN1c1cc(C2CC2)nc2[nH]ccc12 [Example 95, (R)-6-(6-cyclopropyl-1H-pyrrolo[2,3-b]pyridin-4-yl)-7-methyl-4-(1-(methylsulfonyl)-piperidin-4-yl)-5,6,7,8-tetrahydropyrido[4,3-d]-pyrimidine]
14 | 2650 | 555 |  | C[C@@H]1Cc2ncnc(C3CCN(S(C)(=O)=O)CC3)c2CN1c1nccc2[nH]ccc12 [Example 59, (R)-7-methyl-4-(1-(methylsulfonyl)piperidin-4-yl)-6-(1H-pyrrolo[3,2-c]pyridin-4-yl)-5,6,7,8-tetrahydropyrido[4,3-d]pyrimidine]
15 |  | 3010 | 1000 to 10000 | C[C@@H]1Cc2ncnc(C3CCN(S(C)(=O)=O)CC3)c2CN1c1ccnc2[nH]ncc12 [Example 42, (R)-7-methyl-4-(1-(methylsulfonyl)piperidin-4-yl)-6-(1H-pyrazolo[3,4-b]pyridin-4-yl)-5,6,7,8-tetrahydropyrido[4,3-d] pyrimidine]
16 | 86 | 57 |  | COC(=O)[C@H]1CCCN(c2ncnc3c2CN(c2cc(Cl)nc4[nH]ccc24)[C@H](C)C3)C1 [Example 63, Methyl (S)-1-((R)-6-(6-chloro-1H-pyrrolo[2,3-b]pyridin-4-yl)-7-methyl-5,6,7,8-tetrahydropyrido-[4,3-d]pyrimidin-4-yl)-piperidine-3-carboxylate]
17 | 715 | 119 |  | C[C@@H]1Cc2ncnc(N3CCC[C@@H](NS(C)(=O)=O)C3)c2CN1c1cc(Cl)nc2[nH]ccc12 [Example 72, N-((R)-1-((R)-6-(6-chloro-1H-pyrrolo[2,3-b]-pyridin-4-yl)-7-methyl-5,6,7,8-tetrahydropyrido-[4,3-d]pyrimidin-4-yl)-piperidin-3-yl)-methanesulfonamide]
18 | 25000 | 2360 |  | CCOc1cc(N2Cc3c(ncnc3C3CCN(S(C)(=O)=O)CC3)C[C@@H]2CF)c2cc[nH]c2n1 [Example 55a, (R)-6-(6-ethoxy-1H-pyrrolo[2,3-b]pyridin-4-yl)-7-(fluoromethyl)-4-(1-(methylsulfonyl)piperidin-4-yl)-5,6,7,8-tetrahydropyrido[4,3-d]pyrimidine]
19 | 87 | 15 |  | CC(C)Oc1cc(N2Cc3c(ncnc3C3CCN(S(C)(=O)=O)CC3)C[C@H]2C)c2cc[nH]c2n1 [Example 93, (R)-6-(6-isopropoxy-1H-pyrrolo[2,3-b]pyridin-4-yl)-7-methyl-4-(1-(methylsulfonyl)piperidin-4-yl)-5,6,7,8-tetrahydro-pyrido[4,3-d]pyrimidine]

Row | SMILES | IC50 [1, 3] [nM] | IC50 [2] [nM] | IC50 ([1]; estimated range, read-out: ATR/ATRIP Enzyme IC50 (estimated class)) [nM]
20 | C[C@@H]1Cc2ncnc(N3CCC(S(C)(=O)=O)CC3)c2CN1c1cc(Cl)nc2[nH]ccc12 [Example 9, (R)-6-(6-Chloro-1H-pyrrolo[2,3-b]pyridin-4-yl)-7-methyl-4-(4-(methylsulfonyl)-piperidin-1-yl)-5,6,7,8-tetrahydropyrido[4,3-d]pyrimidine bis(trifluoroacetate)] | 442 | 25 | 
